Experimental data from patent US20250098679A1, “HERBICIDAL PYRIDONE DERIVATIVES” (SYNGENTA CROP PROTECTION AG, priority 2021, published 2025).

Legend:
Assay type in all cases: in vivo
Settings in all cases: evaluated after 13 days
[1] = tested on: Amaranthus retoflexus (AMARE); test: Post-emergence Test, Amaranthus retoflexus (AMARE); design: key to percentage damage caused to the plant, AMARE (five-point scale): 5=81-100%, 4=61-80%, 3=41-60%, 2=21-40%, 1=0-20% damage
Method in brief: (§1)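 Application was a spray of acetone/water (50:50) with 0.5% Tween 20 onto pots of test species sown in standard soil. Unless otherwise stated, the rate was 1000 g/ha. After 13 days under glasshouse conditions (24/16 °C, 65% humidity), injury was scored from 1 (0-20%) to 5 (81-100%).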

Zea mays (ZEAMX) [2] = test: Post-emergence Test, Zea mays (ZEAMX); design: key to percentage damage caused to the plant, ZEAMX (five-point scale): 5=81-100%, 4=61-80%, 3=41-60%, 2=21-40%, 1=0-20% damage
Method in brief: as §1

[3] = tested on: Amaranthus palmeri (AMAPA); test: Post-emergence Test, Amaranthus palmeri (AMAPA); design: key: 5=81-100%, 4=61-80%, 3=41-60%, 2=21-40%, 1=0-20% damage
Method in brief: as §1

Setaria faberi (SETFA) [4] = test: Post-emergence Test, Setaria faberi (SETFA); design: key to percentage damage caused to the plant, SETFA (five-point scale): 5=81-100%, 4=61-80%, 3=41-60%, 2=21-40%, 1=0-20% damage
Method in brief: as §1

[5] = tested on: Ipomoea hederacea (IPOHE); test: Pre-emergence Test, Ipomoea hederacea (IPOHE)
[6] = tested on: Echinochloa crus-galli (ECHCG); test: Pre-emergence Test, Echinochloa crus-galli (ECHCG)
[7] = tested on: Ipomoea hederacea (IPOHE); test: Post-emergence Test, Ipomoea hederacea (IPOHE); design: key to percentage damage caused to the plant, IPOHE (five-point scale): 5=81-100%, 4=61-80%, 3=41-60%, 2=21-40%, 1=0-20% damage
Method in brief: as §1

Setaria faberi (SETFA) [8] = test: Pre-emergence Test, Setaria faberi (SETFA)
Zea mays (ZEAMX) [9] = test: Pre-emergence Test, Zea mays (ZEAMX)
[10] = tested on: Amaranthus palmeri (AMAPA); test: Pre-emergence Test, Amaranthus palmeri (AMAPA)
[11] = tested on: Echinochloa crus-galli (ECHCG); test: Post-emergence Test, Echinochloa crus-galli (ECHCG); design: key to percentage damage caused to the plant, ECHCG (five-point scale): 5=81-100%, 4=61-80%, 3=41-60%, 2=21-40%, 1=0-20% damage
Method in brief: as §1

[12] = tested on: Amaranthus retoflexus (AMARE); test: Pre-emergence Test, Amaranthus retoflexus (AMARE)

Row | Structure (SMILES) | percentage damage caused to the plant, AMARE (five-point scale) ([1]; 250 g/Ha) | percentage damage caused to the plant, ZEAMX (five-point scale) (Zea mays (ZEAMX) [2]; 250 g/Ha) | percentage damage caused to the plant, AMAPA (five-point scale) ([3]; 250 g/Ha) | percentage damage caused to the plant, SETFA (five-point scale) (Setaria faberi (SETFA) [4]; 250 g/Ha) | Pre-emergence Test IPOHE, percentage damage caused to the plant (five-point scale) ([5]; 250 g/Ha (*)) | Pre-emergence Test ECHCG, percentage damage caused to the plant (five-point scale) ([6]; 250 g/Ha (*)) | percentage damage caused to the plant, IPOHE (five-point scale) ([7]; 250 g/Ha) | Pre-emergence Test SETFA, percentage damage caused to the plant (five-point scale) (Setaria faberi (SETFA) [8]; 250 g/Ha (*)) | Pre-emergence Test ZEAMX, percentage damage caused to the plant (five-point scale) (Zea mays (ZEAMX) [9]; 250 g/Ha (*)) | Pre-emergence Test AMAPA, percentage damage caused to the plant (five-point scale) ([10]; 250 g/Ha (*)) | percentage damage caused to the plant, ECHCG (five-point scale) ([11]; 250 g/Ha) | Pre-emergence Test AMARE, percentage damage caused to the plant (five-point scale) ([12]; 250 g/Ha (*)) | percentage damage caused to the plant, AMARE (five-point scale) ([1]; 1000 g/ha) | percentage damage caused to the plant, ZEAMX (five-point scale) (Zea mays (ZEAMX) [2]; 1000 g/ha) | percentage damage caused to the plant, AMAPA (five-point scale) ([3]; 1000 g/ha) | percentage damage caused to the plant, SETFA (five-point scale) (Setaria faberi (SETFA) [4]; 1000 g/ha) | Pre-emergence Test IPOHE, percentage damage caused to the plant (five-point scale) ([5]; 1000 g/ha) | Pre-emergence Test ECHCG, percentage damage caused to the plant (five-point scale) ([6]; 1000 g/ha) | percentage damage caused to the plant, IPOHE (five-point scale) ([7]; 1000 g/ha) | Pre-emergence Test SETFA, percentage damage caused to the plant (five-point scale) (Setaria faberi (SETFA) [8]; 1000 g/ha) | also measured
1 | CCn1c(Cn2cnc3ncccc32)cc(=O)c(C(=O)O)c1-c1ccc(Cl)c(Cl)c1 [Compound 125, 2-(3,4-dichlorophenyl)-1-ethyl-6-(imidazo[4,5-b]pyridin-1-ylmethyl)-4-oxo-pyridine-3-carboxylic acid] | 1 (1=0-20%) | 1 (1=0-20%) | 0 | 1 (1=0-20%) | 0 | 0 | 1 (1=0-20%) | 1 (1=0-20%) | 0 | 1 (1=0-20%) | 1 (1=0-20%) | 0 |  |  |  |  |  |  |  |  | 
2 | CCn1c(Cn2nc(C(F)(F)F)cc2C(F)(F)F)cc(=O)c(C(=O)O)c1-c1ccc(Cl)c(Cl)c1 [Compound 135, 6-[[3,5-bis(trifluoromethyl)pyrazol-1-yl]methyl]-2-(3,4-dichlorophenyl)-1-ethyl-4-oxo-pyridine-3-carboxylic acid] | 1 (1=0-20%) | 1 (1=0-20%) | 1 (1=0-20%) |  |  |  | 2 (2=21-40%) |  |  |  | 1 (1=0-20%) |  | 2 (2=21-40%) | 2 (2=21-40%) | 1 (1=0-20%) | 4 (4=61-80%) | 2 (2=21-40%) | 1 (1=0-20%) | 3 (3=41-60%) | 0 | Pre-emergence Test ZEAMX, percentage damage caused to the plant (five-point scale) (Zea mays (ZEAMX) [9]; 1000 g/ha): 1 (1=0-20%); Pre-emergence Test AMAPA, percentage damage caused to the plant (five-point scale) ([10]; 1000 g/ha): 0; Pre-emergence Test AMARE, percentage damage caused to the plant (five-point scale) ([12]; 1000 g/ha): 1 (1=0-20%)
3 | CCn1c(Cn2cncc2Cl)cc(=O)c(C(=O)O)c1-c1ccc(Cl)c(Cl)c1 [Compound 79, 6-[(5-chloroimidazol-1-yl)methyl]-2-(3,4-dichlorophenyl)-1-ethyl-4-oxo-pyridine-3-carboxylic acid] | 1 (1=0-20%) | 1 (1=0-20%) | 0 | 0 | 0 | 1 (1=0-20%) | 1 (1=0-20%) | 1 (1=0-20%) | 0 | 1 (1=0-20%) | 1 (1=0-20%) | 0 |  |  |  |  |  |  |  |  | 
4 | CCOc1cc(C(F)(F)F)nn1Cc1cc(=O)c(C(=O)O)c(-c2ccc(Cl)c(Cl)c2)n1CC [Compound 148, 2-(3,4-dichlorophenyl)-6-[[5-ethoxy-3-(trifluoromethyl)pyrazol-1-yl]methyl]-1-ethyl-4-oxo-pyridine-3-carboxylic acid] | 1 (1=0-20%) | 1 (1=0-20%) | 1 (1=0-20%) | 3 (3=41-60%) | 0 | 0 | 2 (2=21-40%) | 2 (2=21-40%) | 0 | 0 | 2 (2=21-40%) | 0 | 3 (3=41-60%) | 2 (2=21-40%) | 3 (3=41-60%) | 4 (4=61-80%) | 2 (2=21-40%) | 2 (2=21-40%) | 2 (2=21-40%) | 5 (5=81-100%) | Pre-emergence Test ZEAMX, percentage damage caused to the plant (five-point scale) (Zea mays (ZEAMX) [9]; 1000 g/ha): 0; Pre-emergence Test AMAPA, percentage damage caused to the plant (five-point scale) ([10]; 1000 g/ha): 1 (1=0-20%); percentage damage caused to the plant, ECHCG (five-point scale) ([11]; 1000 g/ha): 4 (4=61-80%); Pre-emergence Test AMARE, percentage damage caused to the plant (five-point scale) ([12]; 1000 g/ha): 0
5 | CCn1c(Cn2ccc(C(F)(F)F)n2)c(C)c(=O)c(C(=O)O)c1-c1ccc(Cl)c(Cl)c1 [Compound 20, 2-(3,4-dichlorophenyl)-1-ethyl-5-methyl-4-oxo-6-[[3-(trifluoromethyl)pyrazol-1-yl]methyl]pyridine-3-carboxylic acid] |  |  |  |  |  |  |  |  |  |  |  |  | 1 (1=0-20%) | 1 (1=0-20%) | 0 | 4 (4=61-80%) | 0 | 4 (4=61-80%) | 0 | 2 (2=21-40%) | Pre-emergence Test ZEAMX, percentage damage caused to the plant (five-point scale) (Zea mays (ZEAMX) [9]; 1000 g/ha): 1 (1=0-20%); Pre-emergence Test AMAPA, percentage damage caused to the plant (five-point scale) ([10]; 1000 g/ha): 0; percentage damage caused to the plant, ECHCG (five-point scale) ([11]; 1000 g/ha): 3 (3=41-60%); Pre-emergence Test AMARE, percentage damage caused to the plant (five-point scale) ([12]; 1000 g/ha): 0
6 | Cn1c(Cn2ccc(C(F)(F)F)n2)cc(=O)c(C(=O)O)c1-c1ccc(C#N)c(Cl)c1 [Compound 117, 2-(3-chloro-4-cyano-phenyl)-1-methyl-4-oxo-6-[[3-(trifluoromethyl)pyrazol-1-yl]methyl]pyridine-3-carboxylic acid] | 0 | 1 (1=0-20%) | 0 | 3 (3=41-60%) | 0 | 3 (3=41-60%) | 3 (3=41-60%) | 4 (4=61-80%) | 0 | 1 (1=0-20%) | 3 (3=41-60%) | 0 | 1 (1=0-20%) | 4 (4=61-80%) | 2 (2=21-40%) | 4 (4=61-80%) | 2 (2=21-40%) | 4 (4=61-80%) | 3 (3=41-60%) | 5 (5=81-100%) | Pre-emergence Test ZEAMX, percentage damage caused to the plant (five-point scale) (Zea mays (ZEAMX) [9]; 1000 g/ha): 1 (1=0-20%); Pre-emergence Test AMAPA, percentage damage caused to the plant (five-point scale) ([10]; 1000 g/ha): 2 (2=21-40%); percentage damage caused to the plant, ECHCG (five-point scale) ([11]; 1000 g/ha): 4 (4=61-80%); Pre-emergence Test AMARE, percentage damage caused to the plant (five-point scale) ([12]; 1000 g/ha): 2 (2=21-40%)
